Converted amounts (≈) assume the structure as drawn. Where two headings read alike, the source gives them in different places.
Experiments:
[1] = biological target: T1, CCK-B (guinea pig cortex) (Cavia porcellus, UniProt H0VZC5); test: [125I]BHCCK-8 radioligand binding, guinea pig cortical preparation; conditions: read-out: CCK binding inhibition - IC50, [125I]BHCCK
T1 construct: guinea pig cortical preparations; from tissue; host or cells: guinea pig brain cortex membranes
T1 sequence (H0VZC5 1-426): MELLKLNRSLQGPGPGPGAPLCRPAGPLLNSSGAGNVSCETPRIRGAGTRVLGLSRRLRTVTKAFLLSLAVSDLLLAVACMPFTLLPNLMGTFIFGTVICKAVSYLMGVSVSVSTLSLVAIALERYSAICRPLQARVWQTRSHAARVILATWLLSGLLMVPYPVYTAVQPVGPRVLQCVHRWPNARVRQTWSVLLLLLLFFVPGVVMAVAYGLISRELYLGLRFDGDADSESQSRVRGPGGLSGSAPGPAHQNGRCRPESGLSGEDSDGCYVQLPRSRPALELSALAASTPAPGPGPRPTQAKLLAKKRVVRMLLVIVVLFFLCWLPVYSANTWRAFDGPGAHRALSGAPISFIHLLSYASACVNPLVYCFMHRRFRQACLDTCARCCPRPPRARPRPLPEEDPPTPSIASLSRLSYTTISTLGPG
Method: (§1) The resulting supernatant was re-spun at 20,000×g for 20 minutes. […] Incubations were for 40 minutes at 4° C. and were terminated by filtration and washing with ice cold 100 mM saline. […] Incubations were for 30 minutes at room temperature and were terminated by filtration over GF/C filters and washing with 100 mM NaCl.

[2] = biological target: T1, CCK-B (guinea pig cortex); test: [3H]L-365,260 CCK-B selective antagonist ligand binding, brain membranes; conditions: for IC50: read-out: CCK binding inhibition - IC50, [3H]L-365,260
Method: as §1

[3] = biological target: T2, CCK-A (rat pancreas) (Rattus norvegicus, UniProt P30551); test: [125I]BHCCK-8 radioligand binding, rat pancreatic preparation; conditions: read-out: CCK binding inhibition - IC50, [125I]BHCCK
T2 construct: from tissue; host or cells: rat pancreas
T2 sequence (P30551 1-444): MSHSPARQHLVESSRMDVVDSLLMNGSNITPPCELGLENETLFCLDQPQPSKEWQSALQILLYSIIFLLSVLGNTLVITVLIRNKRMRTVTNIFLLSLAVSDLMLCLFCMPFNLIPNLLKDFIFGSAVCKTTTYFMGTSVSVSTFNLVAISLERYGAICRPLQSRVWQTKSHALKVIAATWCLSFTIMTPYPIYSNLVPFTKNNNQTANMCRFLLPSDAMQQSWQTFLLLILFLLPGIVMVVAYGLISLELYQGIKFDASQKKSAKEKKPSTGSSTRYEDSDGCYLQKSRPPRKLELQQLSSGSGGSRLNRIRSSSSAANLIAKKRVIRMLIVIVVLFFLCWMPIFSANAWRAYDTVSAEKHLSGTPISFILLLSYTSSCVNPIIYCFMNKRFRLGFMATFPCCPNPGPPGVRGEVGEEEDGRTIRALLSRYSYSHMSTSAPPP
Method: as §1

[4] = biological target: T2, CCK-A (rat pancreas); test: [3H]L-364,718 CCK-A selective antagonist ligand binding, pancreas; conditions: for IC50: read-out: CCK binding inhibition - IC50, [3H]L-364,718
Method: as §1

[5] = test system: Bacillus sp. (Mb 633); test: Agar diffusion disc assay, Baci 633; type: cell-based; conditions: Bacillus, 18 h
Method: (§2) Cultures employed in evaluating antimicrobial activity included plant pathogens, human and animal opportunistic pathogens and selected laboratory strains having specific-antibiotic sensitivities or chromosomal or R-plasmid-mediated resistances. […] The agar diffusion MIC's were determined using the method described by Barry in Anitbiotics in Laboratory Medicine, 2nd Ed., Ed. V. Lorian, pp. 1-63, William & Wilkins, Baltimore, 1986. Each test compound was dissolved in methanol to a concentration of 1 mg/ml. Serial dilutions of these compounds were also made to determine an agar diffusion MIC. 20 μl of each dilution was pipetted on to 6 mm paper discs, air dried and placed onto the surface of an agar plate seeded with the appropriate bacteria (~10^6 cfu). Seeded agar plates were incubated overnight (~18 hours) at 25° C. Zone sizes were measured to the nearest mm. Each compound was tested in triplicate and the results shown represent the mean.

[6] = test system: Staphylococcus aureus (Mb 108, ATCC 6538P); test: Agar diffusion disc assay, Sta 108; type: cell-based; conditions: Staphylococcus aureus, ATCC6538P, 18 h; @ 20 g/disc; read-out: Inhibition zone diameter, Sta 108
Method: as §2

[7] = test system: Bacillus subtilis (Mb 964, ATCC 6633); test: Agar diffusion disc assay, Subt 964; type: cell-based; conditions: Bacillus subtilis, ATCC6633, 18 h; @ 20 g/disc; read-out: Inhibition zone diameter, Subt 964
Method: as §2

[8] = test system: Micrococcus luteus (Mb 1101, ATCC 9341); test: Agar diffusion disc assay, Micr 1101; type: cell-based; conditions: Micrococcus luteus; for MIC: read-out: Agar Diffusion MIC versus Micrococcus luteus
Method: as §2

[9] = test system: Staphylococcus aureus (Mb 2983); test: Agar diffusion disc assay, Sta 2983; type: cell-based; conditions: Staphylococcus aureus, 18 h; @ 20 g/disc; read-out: Inhibition zone diameter, Sta 2983
Method: as §2

[10] = test system: Corynebacterium pseudodiphtheriticum (Mb 261, ATCC 9742); test: Agar diffusion disc assay, Cory 261; type: cell-based; conditions: Corynebacterium pseudodiphtheriticum, ATCC9742, 18 h; @ 20 g/disc; read-out: Inhibition zone diameter, Cory 261
Method: as §2

[11] = test system: Streptococcus faecium (Mb 2820); test: Agar diffusion disc assay, Str 2820; type: cell-based; conditions: Enterococcus faecium, 18 h; @ 20 g/disc; read-out: Inhibition zone diameter, Str 2820
Method: as §2

[12] = test system: Streptococcus agalactiae (Mb 2875); test: Agar diffusion disc assay, Str 2875; type: cell-based; conditions: Streptococcus agalactiae, 18 h; @ 20 g/disc; read-out: Inhibition zone diameter, Str 2875
Method: as §2

[13] = test system: Salmonella gallinarum (Mb 1287); test: Agar diffusion disc assay, Salm 1287; type: cell-based; conditions: Salmonella enterica, GALLINARUM, 18 h; @ 20 g/disc; read-out: Inhibition zone diameter, Salm 1287
Method: as §2

[14] = test system: Escherichia coli (Mb 1418); test: Agar diffusion disc assay, Coli 1418; type: cell-based; conditions: Escherichia coli, 18 h; @ 20 g/disc; read-out: Inhibition zone diameter, Coli 1418
Method: as §2

[15] = test system: Pseudomonas stutzeri (Mb 1231, ATCC 11607); test: Agar diffusion disc assay, Pseu 1231; type: cell-based; conditions: Stutzerimonas stutzeri, ATCC11607, 18 h; @ 20 g/disc; read-out: Inhibition zone diameter, Pseu 1231
Method: as §2

[16] = test system: En terobacter aergenes (Mb 835); test: Agar diffusion disc assay, Ent 835; type: cell-based; conditions: 18 h; @ 20 g/disc; read-out: Inhibition zone diameter, Ent 835
Method: as §2

[17] = ATCC9341, 18 h, @ 20 g/disc, read-out: Inhibition zone diameter, Micr 1101

SMILES: CCCCC(=O)O[C@@H]1/C=C(C)/C=C/CNC(=O)/C=C/[C@@H](C)[C@@H](C(C)C)OC(=O)C2=CCCN2C(=O)c2coc(n2)CC(=O)C1 [Example 4]
- IC50 [1]: 500 nM
- A.R. = agonist ratio = IC50([3H]L365,260)/IC50([125I]CCK) [2]: 2
- IC50 [2]: 1200 nM
- IC50 [3]: > 3000 nM
- IC50 [4]: > 3000 nM
- zone of inhibition at 20 µg/disc ([5]; @ 20 g/disc, read-out: Inhibition zone diameter, Baci 633): 0 mm
- zone of inhibition at 20 µg/disc [6]: 0 mm
- zone of inhibition at 20 µg/disc [7]: 0 mm
- zone of inhibition at 20 µg/disc [8, 17]: 25 mm
- MIC ([8]; ATCC9341, 18 h): 0.54 µM (≈ 0.329 µg/mL)
- zone of inhibition at 1.25 µg/disc ([8]; ATCC9341, 1.25 μg/disc, 25° C., ~18 hours, read-out: Mean of triplicate zone size versus Micrococcus luteus): 12 mm
- zone of inhibition at 2.5 µg/disc ([8]; ATCC9341, 2.50 μg/disc, 25° C., ~18 hours, read-out: Mean of triplicate zone size versus Micrococcus luteus): 16 mm
- zone of inhibition at 5 µg/disc ([8]; ATCC9341, 5.00 μg/disc, 25° C., ~18 hours, read-out: Mean of triplicate zone size versus Micrococcus luteus): 19 mm
- zone of inhibition at 10 µg/disc ([8]; ATCC9341, 10.0 μg/disc, 25° C., ~18 hours, read-out: Mean of triplicate zone size versus Micrococcus luteus): 21 mm
- zone of inhibition at 20 µg/disc ([8]; ATCC9341, 20.0 μg/disc, 25° C., ~18 hours, read-out: Mean of triplicate zone size versus Micrococcus luteus): 22 mm
- zone of inhibition at 20 µg/disc [9]: 0 mm
- zone of inhibition at 20 µg/disc [10]: 0 mm
- zone of inhibition at 20 µg/disc [11]: 0 mm
- zone of inhibition at 20 µg/disc [12]: 0 mm
- zone of inhibition at 20 µg/disc [13]: 0 mm
- zone of inhibition at 20 µg/disc [14]: 0 mm
- zone of inhibition at 20 µg/disc [15]: 0 mm
- zone of inhibition at 20 µg/disc [16]: 0 mm

SMILES: CC1=C\[C@@H](OC(=O)Nc2cccc(C)c2)CC(=O)Cc2nc(co2)C(=O)N2CCC=C2C(=O)O[C@H](C(C)C)[C@H](C)/C=C/C(=O)NC\C=C\1 [Example 12]
- IC50 [1]: 400 nM
- A.R. = agonist ratio = IC50([3H]L365,260)/IC50([125I]CCK) [2]: 7.5
- IC50 [2]: 3000 nM
- IC50 [3]: 1900 nM
- A.R. = agonist ratio ([4]; [3H]L-364,718 / [125I]BHCCK): 4.2
- IC50 [4]: 8000 nM
- zone of inhibition at 20 µg/disc ([5]; read-out: Inhibition zone diameter, Baci 633, @ 20 g/disc): 0 mm
- zone of inhibition at 20 µg/disc [6]: 0 mm
- zone of inhibition at 20 µg/disc [7]: 0 mm
- zone of inhibition at 20 µg/disc [8, 17]: 9 mm
- MIC ([8]; ATCC9341, 18 h): > 243 µM
- zone of inhibition at 20 µg/disc [9]: 0 mm
- zone of inhibition at 20 µg/disc [10]: 0 mm
- zone of inhibition at 20 µg/disc [11]: 0 mm
- zone of inhibition at 20 µg/disc [12]: 0 mm
- zone of inhibition at 20 µg/disc [13]: 0 mm
- zone of inhibition at 20 µg/disc [14]: 0 mm
- zone of inhibition at 20 µg/disc [15]: 0 mm
- zone of inhibition at 20 µg/disc [16]: 0 mm

Source: patent US5242938A, “Derivatives of virginiamycin M1” (Merck & Co., Inc., priority 1992, dated 1993)
